# Test results taken from publication PMC7827014, “Synthetic Transition from Thiourea-Based Compounds to Tetrazole Derivatives: Structure and Biological Evaluation of Synthesized New N-(Furan-2-ylmethyl)-1H-tetrazol-5-amine Derivatives” (Molecules, 2021).
# Like-named read-outs stand apart in the source and are kept apart here.
# Assays:
# M. tuberculosis H37Rv = assay: In vitro antitubercular MIC; type: cell-based; conditions: Mycobacterium tuberculosis, read-out: Minimal inhibitory concentration
# S. aureus ATCC 29213 = assay: MIC microdilution, standard strain; type: cell-based; conditions: Staphylococcus aureus
# [1] = system: M. tuberculosis INH susceptible (Spec. 192); assay: In vitro antitubercular MIC; type: cell-based; conditions: Mycobacterium tuberculosis, read-out: Minimal inhibitory concentration
# HaCaT = assay: MTT assay 72 h; type: cell-based, human
# Protocol: (§1) The cell viability was assessed by using an enzymatic conversion of 3-(4,5-dimethylthiazol-2-yl)-2,5-diphenyltetrazolium bromide salt (MTT) to insoluble formazan crystals by mitochondrial dehydrogenases, occurring in living cells. Cells were cultured in 96-well plates at a density of l × 10^4 cells per well, and cultured to adhere for 24 h at 37 °C in a CO2 incubator. After 24 h of incubation, culture medium was replaced with a fresh medium, then cells were treated with various concentrations of the compounds and incubated for 72 h at 37 °C in a CO2 incubator. Untreated cells were used as the control. Subsequently, MTT solution (0,5 mg/mL in free-serum medium) was added, and samples were incubated for 4 h at 37 °C in a CO2 incubator. Then, the medium was aspirated, and formed formazan crystals were solubilized by adding an isopropanol-DMSO mixture (1:1 vol). The intensity of the dissolved crystals was measured using a UVM 340 reader (ASYS Hitech GmbH, Austria), at a wavelength of 570 nm. Cell viability was presented as a percent of MTT reduced in treated cells versus control cells (incubated without tested compounds). The relative MTT level (%) was calculated as [A]/[B]×100, where [A] is the absorbance of the test sample, and [B] is the absorbance of the control sample containing the untreated cells. The IC50 value was estimated using CalcuSyn version 1.0. […]
# (§2) Antiproliferative activity of tested compounds. Data are given as IC50 [µM] and SI.
# (§3) Human immortal keratinocyte cell line from adult human skin (HaCaT), Human colorectal adenocarcinoma (CaCo-2), Human epithelial lung carcinoma cell line (A549) and Human melanoma cell line (HTB-140). Data are expressed as mean ± SD. The SI (Selectivity Index) was calculated for each compound using formula: SI = IC50 for normal cel line / IC50 cancer cel line.
# HTB-140 = assay: MTT assay 72 h; type: cell-based, human; conditions: HTB-140, MTT 72 h, mean ± SD
# Protocol: as §1, §2, §3
# A549 = assay: MTT assay 72 h; type: cell-based, human
# Protocol: as §1, §2, §3
# [2] = system: S. epidermidis ATCC 12228; assay: MIC microdilution, standard strain; type: cell-based
# S. aureus NCTC 4163 [3] = assay: MIC microdilution, standard strain; type: cell-based; conditions: Staphylococcus aureus
# Caco-2 = assay: MTT assay 72 h; type: cell-based; conditions: Homo sapiens
# Protocol: as §1, §2, §3
# E. coli NCTC 8196 = assay: MIC microdilution, standard strain; type: cell-based; conditions: E. coli NCTC 8196, 18 h, 35 °C
# E. hirae ATCC 10541 [4] = assay: MIC microdilution, standard strain; type: cell-based
# E. coli ATCC 25922 = assay: MIC microdilution, standard strain; type: cell-based; conditions: E. coli ATCC 25922, 18 h, 35 °C
# [5] = system: S. epidermidis ATCC 12228; design: method as in PMID 30031974; conditions: previous project ref 20; cited from earlier work
# S. aureus NCTC 4163 [6] = system: S. aureus NCTC 4163; design: method as in PMID 30031974; conditions: previous project ref 20; cited from earlier work
# P. aeruginosa ATCC 27853 = system: P. aeruginosa ATCC 27853; design: method as in PMID 30031974; conditions: previous project ref 20; cited from earlier work
# P. aeruginosa ATCC 15442 [7] = system: P. aeruginosa ATCC 15442; design: method as in PMID 30031974; conditions: previous project ref 20; cited from earlier work
# [8] = system: standard bacterial strains; design: method as in PMID 30031974; conditions: various standard bacterial strains; cited from earlier work
# [9] = system: hospital staphylococcal isolates; design: method as in PMID 30031974; conditions: clinical cocci; cited from earlier work
# E. hirae ATCC 10541 [10] = system: E. hirae ATCC 10541; design: method as in PMID 30031974; conditions: previous project ref 20; cited from earlier work
# P. aeruginosa ATCC 15442 [11] = assay: MIC microdilution, standard strain; type: cell-based; conditions: Pseudomonas aeruginosa, ATCC15442, 18 h
# [12] = ATCC29213, S. aureus ATCC 29213, 18 h, 35 °C, read-out: MIC
# [13] = Homo sapiens, HaCaT normal cells, MTT 72 h, mean ± SD, read-out: IC50
# [14] = Homo sapiens, A549, MTT 72 h, mean ± SD, read-out: IC50
# [15] = Staphylococcus epidermidis, ATCC12228, S. epidermidis ATCC 12228, 18 h, 35 °C, read-out: MIC
# [16] = NCTC4163, S. aureus NCTC 4163, 18 h, 35 °C, read-out: MIC
# [17] = Caco-2, MTT 72 h, mean ± SD, read-out: IC50
# [18] = Escherichia coli, NCTC8196, read-out: MIC
# [19] = Enterococcus hirae, ATCC10541, E. hirae ATCC 10541, 18 h, 35 °C, read-out: MIC
# [20] = Escherichia coli, ATCC25922, read-out: MIC
Structure (SMILES),MIC (M. tuberculosis H37Rv) [µg/mL],MIC [1] [µg/mL],IC50 (HaCaT; [13]) [µM],IC50 (HTB-140; Homo sapiens) [µM],IC50 (A549; [14]) [µM],IC50 (Caco-2; [17]) [µM],further results
"Cc1ccc(Cl)cc1-n1nnnc1NCc1ccco1 [Compound 2, 1-(5-chloro-2-methylphenyl)-N-(furan-2-ylmethyl)-1H-tetrazol-5-amine]",> 512,> 512,> 100,> 100,> 100,> 100,"MIC (S. aureus ATCC 29213; [12]): 64 µg/mL; MIC [2, 15]: 256 µg/mL; MIC (S. aureus NCTC 4163 [3]; [16]): 64 µg/mL; MIC (E. coli NCTC 8196; [18]): 128 µg/mL; MIC (E. hirae ATCC 10541 [4]; [19]): 64 µg/mL; MIC (E. coli ATCC 25922; [20]): 128 µg/mL"
"Fc1ccc(-n2nnnc2NCc2ccco2)cc1 [Compound 1, 1-(4-fluorophenyl)-N-(furan-2-ylmethyl)-1H-tetrazol-5-amine]",256,256,> 100,> 100,> 100,> 100,"MIC (S. aureus ATCC 29213; [12]): 64 µg/mL; MIC ([2]; Staphylococcus epidermidis, ATCC12228, 18 h): 256 µg/mL; MIC (S. aureus NCTC 4163 [3]; [16]): 64 µg/mL; MIC (E. coli NCTC 8196; [18]): 128 µg/mL; MIC (E. coli ATCC 25922; [20]): 128 µg/mL"
"Fc1ccc(-n2nnnc2NCc2ccco2)cc1Cl [Ref 2, 1-(3-chloro-4-fluorophenyl)-N-(furan-2-ylmethyl)-1H-tetrazol-5-amine]",–,–,–,–,–,–,MIC [5]: 2 µg/mL; MIC (S. aureus NCTC 4163 [6]): 2 µg/mL; MIC (P. aeruginosa ATCC 27853): 2 µg/mL; MIC (P. aeruginosa ATCC 15442 [7]): 64 µg/mL; MIC (range) [8]: 0.25 to 4 µg/mL; MICs (range) [9]: 2 to 16 µg/mL; MIC (E. hirae ATCC 10541 [10]): 4 µg/mL
"Clc1ccccc1-n1nnnc1NCc1ccco1 [Compound 11, 1-(2-chlorophenyl)-N-(furan-2-ylmethyl)-1H-tetrazol-5-amine]",512,256,> 100,> 100,> 100,> 100,–
"Clc1cccc(-n2nnnc2NCc2ccco2)c1 [Compound 4, 1-(3-chlorophenyl)-N-(furan-2-ylmethyl)-1H-tetrazol-5-amine]",> 512,512,> 100,> 100,> 100,> 100,"MIC (S. aureus ATCC 29213; ATCC29213, 18 h): 256 µg/mL; MIC [2, 15]: 512 µg/mL; MIC (S. aureus NCTC 4163 [3]; NCTC4163, 18 h): 256 µg/mL; MIC (E. coli NCTC 8196; [18]): 512 µg/mL; MIC (E. hirae ATCC 10541 [4]; [19]): 512 µg/mL; MIC (E. coli ATCC 25922): >"
"Cc1ccc(-n2nnnc2NCc2ccco2)cc1Cl [Ref 1, 1-(3-chloro-4-methylphenyl)-N-(furan-2-ylmethyl)-1H-tetrazol-5-amine]",–,–,–,–,–,–,MIC [5]: 2 µg/mL; MIC (S. aureus NCTC 4163 [6]): 4 µg/mL; MIC (P. aeruginosa ATCC 27853): 4 µg/mL; MIC (P. aeruginosa ATCC 15442 [7]): 32 µg/mL; MIC (E. hirae ATCC 10541 [10]): 8 µg/mL
"Ic1ccc(-n2nnnc2NCc2ccco2)cc1 [Compound 3, N-(furan-2-ylmethyl)-1-(4-iodophenyl)-1H-tetrazol-5-amine]",> 512,> 512,> 100,> 100,> 100,> 100,"MIC (P. aeruginosa ATCC 15442 [11]): 512 µg/mL; MIC (S. aureus ATCC 29213; [12]): 64 µg/mL; MIC [2, 15]: 128 µg/mL; MIC (S. aureus NCTC 4163 [3]; [16]): 64 µg/mL; MIC (E. coli NCTC 8196; [18]): 128 µg/mL; MIC (E. hirae ATCC 10541 [4]; [19]): 128 µg/mL; MIC (E. coli ATCC 25922; [20]): 128 µg/mL"
"O=C(O)c1cn(C2CC2)c2cc(N3CCNCC3)c(F)cc2c1=O [Ciprofloxacin, reference compound]",–,–,–,–,–,–,"MIC (E. hirae ATCC 10541 [4]; Enterococcus hirae, ATCC10541, 18 h): 2 µg/mL"
"Brc1ccc(-n2nnnc2NCc2ccco2)cc1 [Compound 10, 1-(4-bromophenyl)-N-(furan-2-ylmethyl)-1H-tetrazol-5-amine]",> 512,> 512,> 100,> 100,> 100,> 100,–
"Clc1ccc(-n2nnnc2NCc2ccco2)cc1Cl [Compound 5, 1-(3,4-dichlorophenyl)-N-(furan-2-ylmethyl)-1H-tetrazol-5-amine]",> 512,> 512,> 100,> 100,> 100,> 100,–
"Fc1cccc(-n2nnnc2NCc2ccco2)c1 [Compound 9, 1-(3-fluorophenyl)-N-(furan-2-ylmethyl)-1H-tetrazol-5-amine]",256,256,> 100,> 100,> 100,> 100,–
"Brc1cccc(-n2nnnc2NCc2ccco2)c1 [Compound 7, 1-(3-bromophenyl)-N-(furan-2-ylmethyl)-1H-tetrazol-5-amine]",512,512,> 100,> 100,> 100,> 100,–
"COc1cccc2c1C(=O)c1c(O)c3c(c(O)c1C2=O)C[C@@](O)(C(=O)CO)C[C@@H]3O[C@H]1C[C@H](N)[C@H](O)[C@H](C)O1 [doxorubicin, reference compound]",–,–,–,–,–,–,"IC50 (HaCaT; Homo sapiens, HaCaT, 72 h): 1.09 µM; IC50 (A549; Homo sapiens, A549, 72 h): 0.63 µM; IC50 (Caco-2; Caco-2, 72 h): 0.53 µM"
"NNC(=O)c1ccncc1 [INH, isoniazid, reference compound]",≤ 0.0625,≤ 0.0625,–,–,–,–,–
"Brc1ccccc1-n1nnnc1NCc1ccco1 [Compound 12, 1-(2-bromophenyl)-N-(furan-2-ylmethyl)-1H-tetrazol-5-amine]",512,512,> 100,> 100,> 100,> 100,–
"N.N.[Cl][Pt][Cl] [cisplatin, reference compound]",–,–,–,–,–,–,"IC50 (HaCaT; HaCaT normal cells, MTT 72 h, mean ± SD, read-out: IC50): 2.84 µM; IC50 (HTB-140): 1.13 µM; IC50 (A549; A549, MTT 72 h, mean ± SD, read-out: IC50): 1.95 µM"
"Clc1ccc(-n2nnnc2NCc2ccco2)cc1 [Compound 8, 1-(4-chlorophenyl)-N-(furan-2-ylmethyl)-1H-tetrazol-5-amine]",256,512,> 100,> 100,> 100,> 100,"MIC (S. aureus ATCC 29213; [12]): 128 µg/mL; MIC ([2]; S. epidermidis ATCC 12228, 18 h, 35 °C): >; MIC (S. aureus NCTC 4163 [3]; [16]): 128 µg/mL; MIC (E. coli NCTC 8196): >; MIC (E. hirae ATCC 10541 [4]; E. hirae ATCC 10541, 18 h, 35 °C): >; MIC (E. coli ATCC 25922): >"
